US6780842B2, “Ceruloplasmin and an antioxidant composition comprising the same and their uses as neuroprotective agent” (Warner-Lambert Company LLC, priority 1999, dated 2004)

How the values were obtained:
CP ferroxidase activity = CP ferroxidase activity after incubation with H2O2, without or with pyruvate; type: biochemical, bovine; conditions: FIG. 8; 5 mM pyruvate, CP 4 μM, 5 mM H2O2, 37° C.
Description: CP (4 μM) was incubated for different times (ranging from 0 to 12 h) in the presence of 5 mM H2O2, at 37° C., in PBS, without or with the addition of pyruvate (5 mM) as a protecting agent. At the end of incubation, catalase was added at a concentration of 0.1 mg/ml (84 U/ml) and incubation resumed at room temperature for 15 min in order to inactivate H2O2. Ferroxidase activity of CP was then measured by absorbence using a modified version of the method of Erel (1998). This method uses a chromogen to complex Fe^2+ ions that were not transformed to Fe^3+ions in the assay solution. The reaction mix contained 0.45M acetate buffer, pH 5.8, 60 μM Fe(NH4)2(SO4).6H2O, and either CP (sample), 25 mM EDTA (control corresponding to 100% iron oxidation) or PBS (control corresponding to 0% iron oxidation).
FIG. 8. Protection of CP ferroxidase activity by pyruvate in vitro. CP was incubated for various times, at 37° C., in the presence of 5 mM H2O2, without (No protection) or with 5 mM sodium pyruvate. The reaction was stopped by a 5 min incubation with an excess of catalase. Ferroxidase activity was then measured and expressed relatively (%) to that of a control CP sample not exposed to H2O2. The experiment was done three times, in duplicate determinations, and results are expressed as means±S.D.

[1] = Atanasiu et al., 1998; cited from earlier work
[2] = In vitro antioxidant capacity: inhibition of DPD oxidation by H2O2; type: biochemical; conditions: 84 U catalase; 30 min exposure to 5 mM H2O2 (not shown)
Description: Oxidation of N,N-diethyl-p-phenylenediamine (DPD) by a prooxidant system was used as a general reporter of the amount of ROS generated by that system (Anonymous, 1985; Chahine et al., 1991). Antioxidant capacity of preparations of TRIAD (or of its components) was defined as the ability to inhibit the oxidation of DPD by prooxidants.
To estimate the antioxidant capacity of TRIAD preparations in the prooxidant conditions used with P19 neurons, DPD was added to a final concentration of 32 mM to 200 μl of each prooxidant system described above (see section 2.4) and incubated for the times tested with the cells. At the end of incubation, the amount of oxidized DPD was determined at 560 nm using a spectrophotometer adapted to microscale measurement.
FIG. 5. In vitro antioxidant capacity of CP and TRIAD, in the conditions of H2O2 prooxidant system used with P19 neurons. In this assay, conditions of incubation were as described in the legend to FIG. 4 except that P19 neurons were replaced by N,N-diethyl-p-phenylenediamine (DPD) which absorbs at 560 nm upon oxidation. The experiment was done four times, in triplicate determinations, and results are expressed as means±S.D.

P19 neurons [3] = assay: Viability of P19 neurons exposed to XA/XAO prooxidant system (Alamar Blue); type: cell-based; conditions: FIG. 3
Description: (§1) Culture and neuronal differentiation of P19 embryonal carcinoma cells were done according to the procedures of Jeannotte et al. (1997) with the following modifications for microscale adaptation of cultures to 96-well plates: cell aggregates obtained at day 4 of the treatment of P19 cells with retinoic acid were trypsinized with 0.025% trypsin-1 mM EDTA in PBS and subjected to mechanical passages to obtain individual cells which were seeded in gelatin-precoated microwells at a density of 0.7-1×10^5 cells per well. The newly seeded cells (neurons) were cultured in supplemented Neurobasal medium (Neurobasal® containing 0.5 mM L-glutamine and 0.5% B27 supplement) until exposure to oxidative conditions at day 7. […]
(§2) P19 neurons were exposed to the following prooxidant systems: i) XA/XAO system (which produces •O2^− superoxide radicals and hydrogen peroxide H2O2, according to equation 1, shown below); ii) hydrogen peroxide H2O2; and iii) H2O2/Fe^+2 system (which generates •OH [hydroxyl radicals] via the Fenton reaction, equation 2). […] After they were incubated under oxidative conditions, neurons were analyzed for their residual viability by a fluorimetric assay using the Alamar Blue probe (see section 2.5). […]
(§3) After they were incubated under oxidative conditions, neurons were analyzed for their residual viability by a fluorimetric assay using the Alamar Blue probe. […]

P19 neurons [4] = assay: Viability of P19 neurons exposed to H2O2 (Alamar Blue); type: cell-based; conditions: catalase 84 U; 5 mM hydrogen peroxide during 30 min
Description: as §1, §2, §3

For `CC(=O)C(=O)[O-].[Na+]` [pyruvate, sodium pyruvate], the “Protection of CP ferroxidase activity against H2O2” value (CP ferroxidase activity) was “inhibited the loss of ferroxidase activity”.

For albumin, the “Concentration ensuring good antioxidative activity in vitro” value [1] is given as 260 µM.

In the case of catalase, the “Inhibition of DPD oxidation by H2O2” value [2] is reported as “completely inhibit DPD oxidation”, the “XAO concentration up to which protection was offered” value (P19 neurons [3]; 250 μM XA, CP 4 μM, catalase 84 U) is reported as “up to 50 mU/mL” and the Protection to neurons (P19 neurons [3]; 84 U catalase, incubated for 40 min with XAO in the presence of 250 μM XA) is reported as “about 10%”. It also gave a Protection to neurons (P19 neurons [4]) of 100%.
